One series deals with CD31. The experiment in a line: CD31 immunohistochemical staining of gastric tumor tissue after local injection of 5-FU in nude mice. The series is classed as in vivo. On the procedure: (§1) To observe changes in vascular tissue within gastric tumor masses after local injection of 5-FU, immunohistochemical staining for CD31 and VEGF was performed.
(§2) For the control group, gastric tumor tissue was implanted in the dorsal region of nude mice, and when the tumor reached a size of 1 cm×1 cm, it was excised and used. For the 5-FU injection group, 5 mg of 5-FU was injected at the base of the tumor when the implanted tumor reached a size of 1 cm×1 cm. […] The immunohistochemical staining method was as follows.
(§3) To reduce endogenous peroxidase activity present in blood cells within the tissue, the slides were treated at room temperature with 3% H2O2 in methanol for 15 minutes. […] The slides were washed twice with TBST (Tris-buffered saline with 0.1% Tween® 20 Detergent) for 3 minutes each, followed by incubation at room temperature for 15 minutes with Detection Kit Reagent 1 (HRP Polymer-anti-mouse/rabbit IgG). […] For counterstaining, Harris hematoxylin was applied.
(§4) For result analysis, the proportion of the area stained for CD31-positive blood vessels and VEGF-positive cancer cells relative to the total tissue area was calculated, and a comparison was made between the control group and the 5-FU locally injected group.

In another series the test system is VEGF. Description: VEGF immunohistochemical staining of gastric tumor tissue after local injection of 5-FU in nude mice. Format: in vivo. On the procedure:
as §1, §2, §3, §4

For the next series, the system named is HUVECs. The experiment in a line: MTS cell proliferation assay, 5-FU cytotoxicity in HUVECs at different pH. The series is classed as cell-based, human. As to conditions: FIG. 5. How it is done: To evaluate the cytotoxic effect of 5-fluorouracil (5-FU) in human umbilical vein endothelial cells (HUVECs) under different pH conditions, an MTS cell proliferation assay was performed.
Subsequently, the cells were cultured for an additional 24 hours in Dulbecco's Modified Eagle's Medium (DMEM) containing 5-FU at different pH conditions (pH 6.4, 7.4, 8.4, and 9.0). Following the incubation, the cells were washed twice with phosphate-buffered saline (PBS), after which 100 μL of fresh DMEM growth medium was added, followed by an additional 48-hour incubation. […] After an additional 2-hour incubation, the absorbance was measured at 490 nm using a microplate reader (Model 680, BIO-RAD; Spark, TECAN, CA, USA).
A general note: Formazan colour is commonly taken as a measure of viable cells.

SMILES strings stand for the structures.

Take `O=c1[nH]cc(F)c(=O)[nH]1` [5-FU, 5-fluorouracil]: the “distribution of necrotic tissue in tumor mass” value in the series on CD31 (5 mg 5-FU, one week, compared to control group, FIG. 6) is given as “the distribution of necrotic tissue increased”. Further, the “Immuno-positive area (%)” value is listed as 0.54% in the series with CD31 (CD31, proportion of total tissue area, 5 mg 5-FU, one week after injection, control group 0.87) and 0.10% in the series on VEGF (VEGF, proportion of total tissue area, 5 mg 5-FU, one week after injection, control group 0.38). In the series with CD31 (CD31 and VEGF, compared to control group, Table 1), the “stained area of CD31 and VEGF” value was “appeared smaller”. For the same compound, in the series on CD31 (compared to control group), the “vascular distribution within the tumor mass” value is listed as “reduced”. For the same compound, the “stained area ratio of CD31” value in the series on CD31 (compared to control group, FIG. 6) was “lower”. Further, the VEGF secretion levels result in the series with VEGF (compared to control group) is on record as “decreased”. In addition, the VEGF stained area entry in the series with VEGF (compared to control group, FIG. 7) is listed as “appeared smaller”. Further, in the series on HUVECs, the “cytotoxicity under alkaline conditions compared to neutral or acidic 5-FU” value was “significantly greater toxicity”. Also, in the series with HUVECs (pH 6.4, 7.4, 8.4, and 9.0, 24 hours), the “cytotoxic effect according to pH” value is listed as “increased as the alkalinity of the drug became stronger”.

(Values after patent US20260345649A1, “PHARMACEUTICAL COMPOSITION FOR DESTRUCTION OF TUMOR BLOOD VESSELS” (SAMSUNG MEDICAL FOUNDATION, priority 2022, published 2026).)
